Experimental data reported in the supplement of paper PMC10307832.

What was measured:
Assay in all cases: relative viability (nuclei count vs DMSO), 5 days (fraction); higher = more cells survive
Zosuquidar + Trametinib = compound: O[C@@H](COc1cccc2ncccc12)CN1CCN([C@@H]2c3ccccc3[C@@H]3[C@H](c4ccccc42)C3(F)F)CC1 [Zosuquidar] + CC(=O)Nc1cccc(-n2c(=O)n(C3CC3)c(=O)c3c(Nc4ccc(I)cc4F)n(C)c(=O)c(C)c32)c1 [Trametinib] (partner 0.02 µM)
Outline: (§1)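 Lung cancer cell lines in 1536-well plates got either a single drug or a fixed anchor-drug dose together with five library-drug doses (not always all listed) in √10 steps, by pin tool, on the day after seeding. Nuclei were counted after 5 days, and relative viability is the treated-to-vehicle ratio of nuclei counts. Values are medians of duplicate plates.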

Kobe2602 + Olaparib = compound: C1=CC(=CC=C1NC(=S)NNC2=C(C=C(C=C2[N+](=O)[O-])C(F)(F)F)[N+](=O)[O-])F [Kobe2602] + O=C(c1cc(Cc2n[nH]c(=O)c3ccccc23)ccc1F)N1CCN(C(=O)C2CC2)CC1 [Olaparib] (partner 8 µM)
Outline: as §1

[1] = compound: COc1cc2nccc(Oc3ccc(NC(=O)C4(C(=O)Nc5ccc(F)cc5)CC4)cc3)c2cc1OC [Cabozantinib] + CS(=O)(=O)N1CCN(Cc2cc3nc(-c4cccc5[nH]ncc45)nc(N4CCOCC4)c3s2)CC1 [Pictilisib] (partner 1 µM)
Outline: as §1

[2] = compound: COc1cc2nccc(Oc3ccc(NC(=O)C4(C(=O)Nc5ccc(F)cc5)CC4)cc3)c2cc1OC [Cabozantinib] + Nc1nc2[nH]cc(CCc3ccc(C(=O)N[C@@H](CCC(=O)O)C(=O)O)cc3)c2c(=O)[nH]1 [Pemetrexed] (partner 0.2 µM)
Outline: as §1

Row | Cell Line | relative viability (Zosuquidar + Trametinib; first compound 0.01 µM) | relative viability (Zosuquidar + Trametinib; first compound 0.3162 µM) | relative viability (Zosuquidar + Trametinib; first compound 1 µM) | relative viability (Kobe2602 + Olaparib; first compound 0.2 µM) | relative viability (Kobe2602 + Olaparib; first compound 0.6325 µM) | relative viability (Kobe2602 + Olaparib; first compound 2 µM) | relative viability (Kobe2602 + Olaparib; first compound 6.325 µM) | relative viability (Kobe2602 + Olaparib; first compound 20 µM) | relative viability ([1]; first compound 0.02 µM) | relative viability ([1]; first compound 0.06325 µM) | relative viability ([1]; first compound 0.2 µM) | relative viability ([1]; first compound 0.6325 µM) | relative viability ([1]; first compound 2 µM) | relative viability ([2]; first compound 0.02 µM) | relative viability ([2]; first compound 0.06325 µM) | relative viability ([2]; first compound 0.6325 µM) | relative viability ([2]; first compound 2 µM) | relative viability (Zosuquidar + Trametinib; first compound 0.03162 µM) | relative viability (Zosuquidar + Trametinib; first compound 0.1 µM) | relative viability ([2]; first compound 0.2 µM)
1 | NCI-H1793 | 0.423 | 0.445 | 0.434 | 0.91 | 0.852 | 0.744 | 0.883 | 0.977 | 0.416 | 0.325 | 0.296 | 0.27 | 0.293 | 0.865 | 0.917 | 0.73 | 0.588 | – | – | –
2 | NCI-H2023 | 0.595 | 0.702 | 0.596 | 0.496 | 0.566 | 0.511 | 0.446 | 0.166 | 0.189 | 0.228 | 0.22 | 0.206 | 0.2 | 0.199 | 0.272 | 0.23 | 0.146 | 0.669 | 0.574 | 0.175
3 | NCI-H1666 | 0.833 | 0.954 | 0.811 | 0.717 | 0.741 | 0.829 | 0.774 | 0.805 | 0.404 | 0.4 | 0.396 | 0.503 | 0.439 | 0.9 | 0.902 | 0.899 | 0.875 | 1.03 | 0.859 | 0.873
4 | HARA | 0.833 | 1.03 | 0.541 | 0.868 | 1.03 | 0.914 | 0.958 | 0.78 | 0.315 | 0.417 | 0.508 | 0.474 | 0.429 | 0.244 | 0.234 | 0.279 | 0.226 | 0.938 | 0.772 | –
5 | NCI-H358 | 0.133 | 0.125 | 0.125 | 0.586 | 0.592 | 0.589 | 0.528 | 0.653 | 0.318 | 0.35 | 0.386 | 0.387 | 0.373 | 0.181 | 0.171 | 0.18 | 0.166 | 0.132 | 0.155 | 0.16
6 | NCI-H3122 | 0.232 | 0.222 | 0.211 | 0.551 | 0.602 | 0.621 | 0.56 | 0.619 | 0.512 | 0.622 | 0.579 | 0.77 | 0.769 | 0.212 | 0.203 | 0.199 | 0.209 | 0.258 | 0.238 | 0.195
7 | 201T | 0.731 | 0.691 | 0.719 | 0.815 | 0.859 | 0.869 | 0.866 | 0.826 | 0.688 | 0.715 | 0.656 | 0.709 | 0.71 | 0.311 | 0.351 | 0.336 | 0.313 | 0.742 | 0.684 | 0.305
8 | SK-LU-1 | 0.506 | 0.489 | 0.519 | 0.463 | 0.471 | 0.494 | 0.457 | 0.523 | – | 0.857 | 0.519 | 0.481 | 0.529 | 1.1 | 1.1 | 0.926 | 0.9 | 0.578 | 0.488 | 0.9
9 | NCI-H1734 | 0.591 | 0.734 | 0.623 | 0.601 | 0.626 | 0.635 | 0.642 | 0.665 | 0.417 | 0.414 | 0.472 | 0.453 | 0.434 | 0.396 | 0.435 | 0.445 | 0.397 | 0.773 | 0.658 | 0.413
10 | NCI-H1651 | 0.773 | 0.864 | 0.789 | 0.186 | 0.165 | 0.189 | 0.19 | 0.193 | 0.548 | 0.62 | 0.513 | 0.547 | 0.468 | 0.498 | 0.732 | 0.497 | 0.544 | 0.803 | 0.772 | 0.588
11 | PC-3 [JPC-3] | 0.78 | 0.692 | 0.699 | 1.1 | 1.22 | 1.13 | 1.19 | 1.13 | 0.723 | 0.926 | – | 0.806 | 0.774 | 0.971 | 1.43 | 1.07 | 1.2 | 0.628 | 0.667 | –
12 | NCI-H1915 | 0.296 | 0.321 | 0.301 | 0.275 | 0.251 | 0.246 | 0.269 | 0.307 | 0.929 | 1.04 | 0.903 | 0.949 | 0.908 | 0.532 | 0.51 | 0.505 | 0.459 | 0.284 | 0.297 | 0.507
13 | COR-L23 | 0.573 | 0.811 | 0.505 | 0.316 | 0.394 | 0.351 | 0.361 | 0.326 | 0.487 | 0.831 | 0.789 | 0.74 | 0.691 | 0.215 | 0.197 | 0.185 | 0.193 | 0.639 | 0.507 | 0.191
14 | ChaGo-K-1 | 0.893 | 0.943 | 0.897 | 0.362 | 0.406 | 0.4 | 0.355 | 0.332 | 0.533 | 0.933 | 0.676 | 0.405 | 0.647 | 0.261 | 0.261 | 0.26 | 0.263 | 0.922 | 0.874 | 0.255
15 | HOP-62 | 0.384 | 0.396 | 0.37 | 0.512 | 0.523 | 0.476 | 0.316 | 0.472 | 0.959 | 0.707 | 1.08 | 0.57 | 0.683 | 0.271 | 0.364 | 0.336 | 0.3 | 0.404 | 0.393 | 0.34
16 | NCI-H1975 | 0.431 | 0.528 | 0.337 | 0.763 | 0.78 | 0.766 | 0.722 | 0.755 | 0.28 | 0.322 | 0.297 | 0.303 | 0.337 | 0.318 | 0.273 | 0.263 | 0.289 | 0.351 | 0.299 | 0.288
